Columns and labels:
[1] = target: recombinant 17bHSD13 (N2-K300) (Homo sapiens (Human), UniProt Q7Z5P4); experiment: In Vitro 17bHSD13 Enzyme Assay; type: biochemical; conditions: 80 nM 17bHSD13, 0.5 mM NAD, 20 μM Estradiol, 2.5 h; estradiol to estrone by LC-MS/MS
In short: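 Human 17bHSD13 (N2-K300, 80 nM) with 0.5 mM NAD, 20 μM estradiol and varied compound in 50 mM Tris-Cl pH 7.4, 5 mM EDTA, 0.01% DDM. Estrone/(estrone+estradiol) ratio read by LC-MS/MS (APCI, positive MRM). Inhibition normalised to DMSO and a known-inhibitor control; IC50 from curve fit.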

CYP2C9 = CYP2C9 (Homo sapiens (Human), UniProt P11712); experiment: Assay B: Cytochrome P450 Inhibition 2C9
Sequence of CYP2C9 (P11712 whole entry): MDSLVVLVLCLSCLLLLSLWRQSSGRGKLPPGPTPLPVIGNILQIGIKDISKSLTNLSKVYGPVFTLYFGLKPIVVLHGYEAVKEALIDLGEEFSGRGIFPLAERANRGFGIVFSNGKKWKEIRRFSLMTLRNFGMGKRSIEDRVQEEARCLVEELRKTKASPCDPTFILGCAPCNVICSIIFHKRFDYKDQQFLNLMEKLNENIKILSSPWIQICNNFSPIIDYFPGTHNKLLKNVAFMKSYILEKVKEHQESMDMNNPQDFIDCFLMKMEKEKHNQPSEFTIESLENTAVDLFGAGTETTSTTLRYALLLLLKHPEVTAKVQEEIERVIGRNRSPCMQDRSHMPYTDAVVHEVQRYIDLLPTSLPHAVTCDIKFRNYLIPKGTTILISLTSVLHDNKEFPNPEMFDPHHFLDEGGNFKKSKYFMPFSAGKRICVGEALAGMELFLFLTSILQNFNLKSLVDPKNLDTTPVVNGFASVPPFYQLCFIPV
Protocol: A fluorescence-based method in 96-well format was used to determine the inhibition of 2C9 (Crespi, C. L. et al., Microtiter plate assays for inhibition of human, drug-metabolizing cytochromes P450. Anal Biochem 1997, 248 (1), 188-190. DOI: 10.1006/abio.1997.2145, which is incorporated herein by reference). The recombinant human enzymes used were prepared in house, except for CYP2D6 (CYPEX LTD, Dundee, UK). Different coumarin substrates, biotransformed into fluorescent metabolites, were used as probes for each individual CYP. A fluorescence plate reader (SPECTRAMAX GEMINIXS, MOLECULAR DEVICES, Sunnyvale, California, USA) was used to measure the levels of metabolites formed. A dilution series of the test substrates was prepared at eight different concentrations. For each CYP, a mixture of the enzyme, corresponding coumarin substrate, potassium phosphate buffer pH 7.4 and water (concentrations and volumes were CYP-dependent) were added to each well in a black 96-well plate. The test substrates at different concentrations were added. After 10 min pre-incubation, the co-factor NADPH was added to initiate the reaction. After 20-50 min (CYP and substrate-dependent) the reaction was terminated by addition of trisbase/MeCN (20:80). The plates were transferred to the fluorescence plate reader where the wavelengths were set individually for the different coumarin substrates and their respective fluorescent metabolite. The responses were exported to Excel where the IC50 curves were plotted (percent inhibition versus concentration) and IC50 values calculated for each test substrate and enzyme using XL-fit.

Sequence of recombinant 17bHSD13 (N2-K300) (Q7Z5P4 2-300): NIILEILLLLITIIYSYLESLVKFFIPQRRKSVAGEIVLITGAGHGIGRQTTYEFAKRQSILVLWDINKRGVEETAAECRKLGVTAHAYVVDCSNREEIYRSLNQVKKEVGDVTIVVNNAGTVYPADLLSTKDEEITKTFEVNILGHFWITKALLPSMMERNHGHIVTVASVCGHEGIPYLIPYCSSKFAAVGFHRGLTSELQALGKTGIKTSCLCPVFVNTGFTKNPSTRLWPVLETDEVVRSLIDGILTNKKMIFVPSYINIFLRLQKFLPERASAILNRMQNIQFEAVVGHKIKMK

Structure (SMILES) | IC50 [1] [nM] | IC50 (CYP2C9) [nM]
O=C(c1noc(-c2cc(F)c(F)c(O)c2F)n1)N1CC[C@H](c2ccc(Cl)cc2)C1 [Example 95, (R)-(3-(4-Chlorophenyl)pyrrolidin-1-yl)(5-(2,4,5-trifluoro-3-hydroxyphenyl)-1,2,4-oxadiazol-3-yl)methanone] | 53 | 1100
O=C(c1noc(-c2cc(F)c(F)c(O)c2F)n1)N1CC[C@H](Oc2ccccc2)C1 [Example 93, (S)-(3-Phenoxypyrrolidin-1-yl)(5-(2,4,5-trifluoro-3-hydroxyphenyl)-1,2,4-oxadiazol-3-yl)methanone] | 63 | 1300
N#Cc1c(C(=O)N2Cc3ccc(F)cc3C2)noc1-c1cc(F)c(F)c(O)c1F [Example 18, 3-(5-Fluoroisoindoline-2-carbonyl)-5-(2,4,5-trifluoro-3-hydroxyphenyl)isoxazole-4-carbonitrile] | 80 | 400
O=C(c1noc(-c2cc(F)c(F)c(O)c2F)n1)N1CCCC(OCc2ccccc2)C1 (centres unmarked) [Example 94, (3-(Benzyloxy)piperidin-1-yl)(5-(2,4,5-trifluoro-3-hydroxyphenyl)-1,2,4-oxadiazol-3-yl)methanone] | 48 | 1200
N#Cc1ccc2c(c1)CN(C(=O)c1noc(-c3cc(F)c(F)c(O)c3F)c1C#N)CC2 [Example 29, 3-(7-Cyano-1,2,3,4-tetrahydroisoquinoline-2-carbonyl)-5-(2,4,5-trifluoro-3-hydroxyphenyl)isoxazole-4-carbonitrile] | 157 | 200
N#Cc1cccc2c1CCN(C(=O)c1noc(-c3c(F)c(O)c(F)c(F)c3I)n1)C2 [Example 109, 2-(5-(2,4,5-Trifluoro-3-hydroxy-6-iodophenyl)-1,2,4-oxadiazole-3-carbonyl)-1,2,3,4-tetrahydroisoquinoline-5-carbonitrile] | 46 | 14800
Cn1nnc(-c2cnc(N3CCN(C(=O)c4noc(-c5cc(F)c(F)c(O)c5F)n4)CC3)c(Cl)c2)n1 [Example 67, (4-(3-Chloro-5-(2-methyl-2H-tetrazol-5-yl)pyridin-2-yl)piperazin-1-yl)(5-(2,4,5-trifluoro-3-hydroxyphenyl)-1,2,4-oxadiazol-3-yl)methanone] | 79 | 3000
O=C(c1noc(-c2cc(F)c(F)c(O)c2F)n1)N1CCN(CCCOc2ccc(F)cc2)CC1 [Example 57, (4-(3-(4-Fluorophenoxy)propyl)piperazin-1-yl)(5-(2,4,5-trifluoro-3-hydroxyphenyl)-1,2,4-oxadiazol-3-yl)methanone] | 88 | 3700
COc1cccc(N2CCN(C(=O)c3noc(-c4cc(F)c(F)c(O)c4F)c3C#N)CC2)c1 [Example 16, 3-(4-(3-Methoxyphenyl)piperazine-1-carbonyl)-5-(2,4,5-trifluoro-3-hydroxyphenyl)isoxazole-4-carbonitrile] | 137 | 800
O=C(c1noc(-c2cc(C(F)(F)F)[nH]c(=O)c2)n1)N1CCC(c2ccccc2)C1 (centres unmarked) [Example 9, 4-(3-(3-Phenylpyrrolidine-1-carbonyl)-1,2,4-oxadiazol-5-yl)-6-(trifluoromethyl)pyridin-2(1H)-one] | 422 | 5700
O=C(c1noc(-c2cc(F)c(F)c(O)c2F)n1)N1CC[C@@H](Oc2ccccc2)C1 [Example 98, (R)-(3-Phenoxypyrrolidin-1-yl)(5-(2,4,5-trifluoro-3-hydroxyphenyl)-1,2,4-oxadiazol-3-yl)methanone] | 63 | 800
N#Cc1cccc2c1CCN(C(=O)c1noc(-c3c(F)c(O)c(F)c(F)c3Br)n1)C2 [Example 30, 2-(5-(2-Bromo-3,4,6-trifluoro-5-hydroxyphenyl)-1,2,4-oxadiazole-3-carbonyl)-1,2,3,4-tetrahydroisoquinoline-5-carbonitrile] | 61 | 3900
O=C(c1noc(-c2cc(F)c(F)c(O)c2F)n1)N1CCOC2CCCC21 (centres unmarked) [Example 41, (Hexahydrocyclopenta[b][1,4]oxazin-4(4aH)-yl)(5-(2,4,5-trifluoro-3-hydroxyphenyl)-1,2,4-oxadiazol-3-yl)methanone] | 82 | 15400
O=C(c1noc(-c2cc(F)c(F)c(O)c2F)n1)N1CCN(CCOc2ccc(Br)cn2)CC1 [Example 69, (4-(2-((5-Bromopyridin-2-yl)oxy)ethyl)piperazin-1-yl)(5-(2,4,5-trifluoro-3-hydroxyphenyl)-1,2,4-oxadiazol-3-yl)methanone] | 131 | 2400
O=C(Nc1ccnn1C1CCCCC1)c1cc(-c2ccc(F)c(O)c2)on1 [Example 99, N-(1-Cyclohexyl-1H-pyrazol-5-yl)-5-(4-fluoro-3-hydroxyphenyl)isoxazole-3-carboxamide] | 114 | > 30000
N#Cc1c(C(=O)N2CCN(CCCOc3ccc(F)cc3)CC2)noc1-c1cc(F)c(F)c(O)c1F [Example 14, 3-(4-(3-(4-Fluorophenoxy)propyl)piperazine-1-carbonyl)-5-(2,4,5-trifluoro-3-hydroxyphenyl)isoxazole-4-carbonitrile] | 126 | 1100
O=C(c1ccc(-c2cc(F)c(F)c(O)c2F)s1)N1CC[C@H](c2ccccc2)C1 [Example 33, (R)-(3-Phenylpyrrolidin-1-yl)(5-(2,4,5-trifluoro-3-hydroxyphenyl)thiophen-2-yl)methanone] | 34 | 200
O=C(c1noc(-c2cc(F)c(F)c(O)c2F)n1)N1CCOC2(CC2)C1 [Example 118, (4-Oxa-7-azaspiro[2.5]octan-7-yl)(5-(2,4,5-trifluoro-3-hydroxyphenyl)-1,2,4-oxadiazol-3-yl)methanone] | 1080 | 7800

Results, then the molecule that gave them:

IC50 [1] [nM] | IC50 (CYP2C9) [nM] | Structure (SMILES)
532 | 1200 | C[C@@H]1CN(C(=O)c2noc(-c3cc(F)c(F)c(O)c3F)c2C#N)C[C@H](C)O1 [Example 22, 3-((2R,6S)-2,6-Dimethylmorpholine-4-carbonyl)-5-(2,4,5-trifluoro-3-hydroxyphenyl)isoxazole-4-carbonitrile]
207 | 14800 | C[C@@H]1CC[C@H](C)N1C(=O)c1noc(-c2cc(F)c(F)c(O)c2F)n1 [Example 38, ((2R,5S)-2,5-Dimethylpyrrolidin-1-yl)(5-(2,4,5-trifluoro-3-hydroxyphenyl)-1,2,4-oxadiazol-3-yl)methanone]
75 | 1800 | O=C(c1noc(-c2cc(F)c(F)c(O)c2F)n1)N1CC(Oc2ccccc2)C1 [Example 2, (3-Phenoxyazetidin-1-yl)(5-(2,4,5-trifluoro-3-hydroxyphenyl)-1,2,4-oxadiazol-3-yl)methanone]
89 | 1800 | O=C(c1noc(-c2cc(F)c(F)c(O)c2F)n1)N1CC(c2ccc(F)cc2)C1 [Example 74, (3-(4-Fluorophenyl)azetidin-1-yl)(5-(2,4,5-trifluoro-3-hydroxyphenyl)-1,2,4-oxadiazol-3-yl)methanone]
80 | 7000 | C[C@@H]1CN(C(=O)c2noc(-c3c(F)c(O)c(F)c(F)c3I)n2)C[C@H](C)O1 [Example 108, ((2S,6R)-2,6-Dimethylmorpholino)(5-(2,4,5-trifluoro-3-hydroxy-6-iodophenyl)-1,2,4-oxadiazol-3-yl)methanone]
468 | 16800 | C[C@@H]1CN(C(=O)c2noc(-c3cc(F)c(F)c(O)c3F)n2)C[C@@H](C)O1 [Example 88, ((2R,6R)-2,6-Dimethylmorpholino)(5-(2,4,5-trifluoro-3-hydroxyphenyl)-1,2,4-oxadiazol-3-yl)methanone]
183 | 1000 | CC(C)CC1CN(C(=O)c2noc(-c3cc(F)c(F)c(O)c3F)n2)CCO1 (centres unmarked) [Example 47, (2-Isobutylmorpholino)(5-(2,4,5-trifluoro-3-hydroxyphenyl)-1,2,4-oxadiazol-3-yl)methanone]
499 | 17200 | C[C@@H]1CN(C(=O)c2noc(-c3cc(F)c(F)c(O)c3F)n2)[C@H](C)CO1 [Example 50, ((2R,5R)-2,5-Dimethylmorpholino)(5-(2,4,5-trifluoro-3-hydroxyphenyl)-1,2,4-oxadiazol-3-yl)methanone]
197 | 5400 | O=C(c1noc(-c2cc(F)c(F)c(O)c2F)n1)N1CCO[C@H]2CCC[C@H]21 [Example 112, ((4aR,7aS)-Hexahydrocyclopenta[b][1,4]oxazin-4(4aH)-yl)(5-(2,4,5-trifluoro-3-hydroxyphenyl)-1,2,4-oxadiazol-3-yl)methanone]
128 | 2600 | CCCC1CCN(C(=O)c2noc(-c3cc(F)c(F)c(O)c3F)n2)C1 (centres unmarked) [Example 76, (3-Propylpyrrolidin-1-yl)(5-(2,4,5-trifluoro-3-hydroxyphenyl)-1,2,4-oxadiazol-3-yl)methanone]
1740 | 12300 | C[C@@H]1CN(C(=O)c2noc(-c3cc(F)c(F)c(O)c3F)n2)C[C@H](C)N1 [Example 119, ((3R,5S)-3,5-Dimethylpiperazin-1-yl)(5-(2,4,5-trifluoro-3-hydroxyphenyl)-1,2,4-oxadiazol-3-yl)methanone]
159 | 8300 | CC1(C)CN(C(=O)c2noc(-c3cc(F)c(F)c(O)c3F)n2)CC(C)(C)O1 [Example 32, (2,2,6,6-Tetramethylmorpholino)(5-(2,4,5-trifluoro-3-hydroxyphenyl)-1,2,4-oxadiazol-3-yl)methanone]
339 | 13900 | O=C(c1noc(-c2cc(F)c(F)c(O)c2F)n1)N1CC2CCC(C1)C2(F)F [Example 43, (8,8-difluoro-3-azabicyclo[3.2.1]octan-3-yl)(5-(2,4,5-trifluoro-3-hydroxyphenyl)-1,2,4-oxadiazol-3-yl)methanone]

— patent US20250011311A1, “AMIDO HETEROAROMATIC COMPOUNDS” (AstraZeneca AB, priority 2022, published 2025)
